Results published in ChEMBL document CHEMBL3286097, “Dual carbonic anhydrase/matrix metalloproteinase inhibitors incorporating bisphosphonic acid moieties targeting bone tumors” (Bioorg Med Chem Lett, 2014).
Activity calls are given as the source filed them. The rule behind the calls is not given here.

What was measured:
[1] = target: Carbonic anhydrase 9 (Homo sapiens, UniProt Q16790)
Description: Inhibition of human recombinant carbonic anhydrase 9 pretreated for 15 mins by stopped flow CO2 hydrase assay

[2] = target: T1, Carbonic anhydrase 1 (Homo sapiens, UniProt P00915)
Target sequence in this assay (P00915 whole entry): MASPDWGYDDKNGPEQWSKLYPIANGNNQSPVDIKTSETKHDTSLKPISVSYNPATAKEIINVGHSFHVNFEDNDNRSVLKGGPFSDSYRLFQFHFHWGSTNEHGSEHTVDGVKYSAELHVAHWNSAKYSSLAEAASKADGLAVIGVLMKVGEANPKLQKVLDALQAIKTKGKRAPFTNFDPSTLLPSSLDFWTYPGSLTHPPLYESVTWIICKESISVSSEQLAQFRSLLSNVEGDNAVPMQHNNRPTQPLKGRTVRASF
Description: Inhibition of human recombinant carbonic anhydrase 1 pretreated for 15 mins by stopped flow CO2 hydrase assay

[3] = target: Carbonic anhydrase 2 (Homo sapiens, UniProt P00918)
Description: Inhibition of human recombinant carbonic anhydrase 2 pretreated for 15 mins by stopped flow CO2 hydrase assay

[4] = target: Carbonic anhydrase 12 (Homo sapiens, UniProt O43570)
Description: Inhibition of human recombinant carbonic anhydrase 12 pretreated for 15 mins by stopped flow CO2 hydrase assay

[5] = target: Carbonic anhydrase 14 (Homo sapiens, UniProt Q9ULX7)
Description: Inhibition of human recombinant carbonic anhydrase 14 pretreated for 15 mins by stopped flow CO2 hydrase assay

[6] = target: 72 kDa type IV collagenase (Homo sapiens, UniProt P08253)
[7] = system: J774; assay: Cytotoxicity against mouse J774 cells assessed as reduction in cell viability; assay type: functional, cell-based
[8] = target: T1, Carbonic anhydrase 1; assay: Activation of human recombinant carbonic anhydrase 1 pretreated for 15 mins by stopped flow CO2 hydrase assay
Target sequence in this assay (P00915 2-261 limits assumed): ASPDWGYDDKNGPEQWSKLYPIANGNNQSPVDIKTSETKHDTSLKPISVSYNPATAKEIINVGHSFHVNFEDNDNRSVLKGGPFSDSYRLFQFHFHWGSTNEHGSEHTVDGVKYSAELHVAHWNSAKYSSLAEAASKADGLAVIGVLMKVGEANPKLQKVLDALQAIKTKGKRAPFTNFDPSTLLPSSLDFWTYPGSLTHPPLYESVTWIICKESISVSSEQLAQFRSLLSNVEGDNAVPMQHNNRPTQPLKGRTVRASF

Chain of Carbonic anhydrase 12 (O43570 whole entry): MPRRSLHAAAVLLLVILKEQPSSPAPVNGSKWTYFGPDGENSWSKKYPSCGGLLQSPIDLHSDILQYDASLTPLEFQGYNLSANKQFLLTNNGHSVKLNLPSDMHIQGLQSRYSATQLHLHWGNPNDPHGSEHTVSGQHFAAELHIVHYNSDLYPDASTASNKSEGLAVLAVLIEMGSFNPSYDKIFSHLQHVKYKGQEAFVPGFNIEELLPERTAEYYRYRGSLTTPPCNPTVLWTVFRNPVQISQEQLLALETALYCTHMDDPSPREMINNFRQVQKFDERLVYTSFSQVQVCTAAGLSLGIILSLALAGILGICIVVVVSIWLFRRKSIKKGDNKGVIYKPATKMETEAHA
Chain of Carbonic anhydrase 14 (Q9ULX7 whole entry): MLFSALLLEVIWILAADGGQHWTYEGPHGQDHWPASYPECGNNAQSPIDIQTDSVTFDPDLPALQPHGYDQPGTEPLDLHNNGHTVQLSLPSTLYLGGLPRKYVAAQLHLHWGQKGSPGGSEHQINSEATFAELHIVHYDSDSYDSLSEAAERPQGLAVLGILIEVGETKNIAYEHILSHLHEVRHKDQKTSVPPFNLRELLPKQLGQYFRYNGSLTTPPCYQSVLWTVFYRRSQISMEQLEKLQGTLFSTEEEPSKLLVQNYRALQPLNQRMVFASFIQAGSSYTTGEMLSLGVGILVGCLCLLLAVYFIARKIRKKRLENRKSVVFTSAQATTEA
Chain of 72 kDa type IV collagenase (P08253 whole entry): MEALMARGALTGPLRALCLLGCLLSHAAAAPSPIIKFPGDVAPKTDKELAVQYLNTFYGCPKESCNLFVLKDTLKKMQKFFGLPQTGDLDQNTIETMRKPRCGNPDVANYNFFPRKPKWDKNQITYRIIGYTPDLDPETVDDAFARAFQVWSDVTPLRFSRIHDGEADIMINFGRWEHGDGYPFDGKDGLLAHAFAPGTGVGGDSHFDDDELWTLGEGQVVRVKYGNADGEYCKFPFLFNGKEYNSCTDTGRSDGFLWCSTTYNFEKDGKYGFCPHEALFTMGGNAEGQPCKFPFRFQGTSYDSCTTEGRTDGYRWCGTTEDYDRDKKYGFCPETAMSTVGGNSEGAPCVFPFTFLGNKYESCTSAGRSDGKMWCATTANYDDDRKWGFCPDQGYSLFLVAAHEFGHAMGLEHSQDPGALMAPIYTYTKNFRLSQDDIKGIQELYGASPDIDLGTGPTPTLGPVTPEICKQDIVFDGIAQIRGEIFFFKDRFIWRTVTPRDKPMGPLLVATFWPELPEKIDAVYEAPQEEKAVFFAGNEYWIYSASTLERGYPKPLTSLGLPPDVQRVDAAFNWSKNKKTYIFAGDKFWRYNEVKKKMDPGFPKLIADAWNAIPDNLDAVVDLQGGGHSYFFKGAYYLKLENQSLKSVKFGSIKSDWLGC

| Compound | IC50 [1] | IC50 [2] | IC50 [3] | IC50 [4] | IC50 [5] | IC50 [6] | Activity [8] | IC50 [7] |
| --- | --- | --- | --- | --- | --- | --- | --- | --- |
| O=[N+]([O-])c1ccc(S(=O)(=O)NC(P(=O)(O)O)P(=O)(O)O)cc1 | 78 nM | > 10 µM | 1.83 µM | 92 nM | 92 nM | 4.9 µM |  |  |
| O=P(O)(O)C(NS(=O)(=O)c1ccc(Cl)cc1)P(=O)(O)O | 95 nM | > 10 µM | 6.16 µM | 464 nM | 6590 nM | 9.5 µM |  |  |
| O=P(O)(O)C(NS(=O)(=O)c1ccccc1)P(=O)(O)O | 397 nM | > 10 µM | > 100 µM | 855 nM | 3310 nM | 15.8 µM |  |  |
| O=P(O)(O)C(P(=O)(O)O)S(=O)(=O)c1ccc(Br)cc1 | > 10000 nM | > 10 µM | > 10 µM | 225 nM | 6050 nM | 52 µM |  |  |
| O=P(O)(O)CP(=O)(O)O [MEDRONIC ACID] | 860000 nM |  | 1250 µM |  |  | 49 µM | Active |  |
| O=[N+]([O-])c1cccc(S(=O)(=O)NC(P(=O)(O)O)P(=O)(O)O)c1 | 2670 nM | > 10 µM | 3.82 µM | 794 nM | > 10000 nM | 16 µM |  |  |
| O=P(O)(O)C(O)(Cn1ccnc1)P(=O)(O)O [ZOLEDRONIC ACID] |  | > 10 µM |  |  |  |  |  | 7.8 µM |
| O=C(NC(P(=O)(O)O)P(=O)(O)O)c1ccc(Br)cc1 | > 10000 nM | > 10 µM | > 10 µM | 278 nM | 6050 nM | 30 µM |  |  |

The next lines start with results.

| IC50 [1] | IC50 [2] | IC50 [3] | IC50 [4] | IC50 [5] | IC50 [6] | Activity [8] | Compound | IC50 [7] |
| --- | --- | --- | --- | --- | --- | --- | --- | --- |
| 347 nM | 6.8 µM | 1.41 µM | 386 nM | 729 nM |  |  | O=P(O)(O)C(NS(=O)(=O)c1ccc(-c2ccccc2)cc1)P(=O)(O)O | 4.9 µM |
| 234 nM | > 10 µM | > 10 µM | 62 nM | 898 nM | 4.8 µM |  | O=P(O)(O)C(NS(=O)(=O)c1ccc(Br)cc1)P(=O)(O)O |  |
| 601 nM | 6.17 µM | 0.504 µM | 87 nM | 593 nM | 0.23 µM |  | O=P(O)(O)C(NS(=O)(=O)c1ccc(-c2cccs2)cc1)P(=O)(O)O | 12 µM |
| 596 nM | 9.03 µM | 0.071 µM | 65 nM | 82 nM | 0.192 µM |  | O=[N+]([O-])c1ccc(-c2ccc(S(=O)(=O)NC(P(=O)(O)O)P(=O)(O)O)cc2)cc1 | 32 µM |
| 84 nM | 0.041 µM | 0.07 µM | 76 nM | 70 nM | 0.11 µM |  | COc1ccc(-c2ccc(S(=O)(=O)NC(P(=O)(O)O)P(=O)(O)O)cc2)cc1 | 12 µM |
| 90 nM | > 10 µM | > 10 µM | 376 nM | 516 nM | 19 µM |  | COc1ccc(S(=O)(=O)NC(P(=O)(O)O)P(=O)(O)O)cc1 |  |
| 6130 nM | 1.75 µM | 2.66 µM | 476 nM | 2440 nM | 0.037 µM |  | O=P(O)(O)C(NS(=O)(=O)c1ccc(-c2ccc(Cl)cc2)cc1)P(=O)(O)O | 1.7 µM |
| 200 nM | > 10 µM | > 100 µM | 461 nM | 541 nM | 18 µM |  | Cc1ccc(S(=O)(=O)NC(P(=O)(O)O)P(=O)(O)O)cc1 |  |
